Data: PMC9181887, “In Vitro Antithrombotic, Hematological Toxicity, and Inhibitor Studies of Protocatechuic, Isovanillic, and p-Hydroxybenzoic Acids from Maclura tricuspidata (Carr.) Bur” (Molecules, 2022)
“And” between values parts separate entries of the source, which are not always exact repeats. Identical values can stand only once.

Columns and labels:
platelets = test: Hematological study, platelet count by hemocytometer; format: cell-based; conditions: 10 min, vs control
Description: (§1) Figure 1 Blood cytotoxic effect of PA (A), IVA (B), and 4-HA (C). Aliquots of washed platelets (10^3/mL), erythrocytes (10^6/mL), and leukocytes (10^3/mL) were treated with or without the compounds for 10 min and cell number was determined by hemocytometer counts. Each value is the mean ± SD of triplicate measurements. * p < 0.05 and ** p < 0.01, compared to each control groups. 10–500, 10–100 μg of each compound treated.
(§2) Total white blood cells (leukocytes) and red blood cells (erythrocytes) were counted using a hemocytometer, as previously described. Blood was diluted 1:200 with Hayem’s fluid and the cells were counted in a loaded hemocytometer chamber. To count the blood platelets, blood was diluted in a ratio of 1:20 with a diluting fluid, and four large (1 mm^2) corner squares of the hemocytometer were counted under a light microscope. Aliquots of leukocytes (0.1 mL; 10^3/mL), erythrocytes (0.1 mL; 10^6/mL), and platelets (0.1 mL; 10^3/mL) were treated with or without the compounds for 10 min.

[1] = system: human platelet-poor plasma; test: Recalcification time assay; format: biochemical; conditions: for Absorbance after Reaction: 650 nm after 30 min, NC2 0.2094 ± 0.0305; for Half Time at 1/2 Maximum: NC2 740 ± 20 s; for Fold of Half Time: NC2 = 1.00; for plasma coagulation time: 1–20 μg
Description: Figure 5 Effect of PA (A), IVA (B), and 4-HA (C) on recalcification time and plasma density. Human platelet-poor plasma was mixed with PA, IVA, and 4-HA dissolved in DMSO in 96-well plates and incubated for 10 min at 37 °C. Thereafter, 100 mM pre-warmed CaCl2 was added to the mixture and absorbance was taken every 60 s at 650 nm for 30 min in a microplate reader. The plasma density was presented as the optical density at 650 nm after 30 min. The half time (s) was presented as reaching a half-maximum absorbance value. NC1, plasma only; NC2, plasma treated with CaCl2; PC, positive control group (1 U heparin); PA1–20, 1–20 μg of PA treated; IVA1–20, 1–20 μg of IVA treated; 4-HA1–20, 1–20 μg of 4-HA treated.
Recalcification time was measured in a 96-well plate, according to a previously described method, with slight modifications. First, 50 μL of human platelet-poor plasma was mixed with 50 μL of the compounds, vehicle as NC2, or 1 U heparin as PC, and incubated at 37 °C for 10 min. Thereafter, 100 mM pre-warmed CaCl2 was added to the mixture and absorbance was measured at 650 nm every 1 min for 30 min using a microplate reader. The plasma density was presented as the absorbance at 650 nm after 30 min. The half time was presented as reaching a half-maximum absorbance value.

human plasma = test: Coagulation assay, APTT; format: biochemical; conditions: for APTT, fold of control / activated partial thromboplastin time (APTT): 100 μg; for activated partial thromboplastin time (APTT): control 39.5 ± 1.5 s, p < 0.01
Description: A coagulation assay was performed to evaluate the prolongation potential of the compounds in blood coagulation by measuring APTT, PT, and TT, as previously described. After pretreatment of the compounds with human plasma for 10 min, APTT, PT, and TT were determined by a coagulometer (Thrombostat 1) manufactured by Behnk Elektronik, Germany.

[2] = system: fibrin polymers and clots (fibrinogen, thrombin, CaCl2); test: Turbidity assay of fibrin polymer/clot formation; format: biochemical, Human; conditions: 1, 2, 5, 10, and 20 μg; 2000 s
Description: Inhibition of fibrin clot formation was determined using a turbidity assay as previously described. The reaction mixtures were prepared by the addition of the compounds, 10 IU u-PA as a positive control (PC), or vehicle as a negative control (NC) 2 in a volume of 100 μL of 5 mM CaCl2, 0.5 U/mL of thrombin, and […] fibrinogen in 20 mM Tris-HCl (pH 7.4). The mixture was incubated for 5 min at 37 °C, and turbidity was monitored at 405 nm every 1 min for 2000 s using a microplate reader (Molecular Devices, Sunnyvale, CA, USA). The clot density was presented as a percentage of inhibition.

leukocytes = test: Hematological study, leukocyte count by hemocytometer; format: cell-based; conditions: 10 min, vs control
Description: as §1, §2

[3] = system: thrombin-activated platelets; test: Serotonin release assay; format: cell-based; conditions: p < 0.05
Description: Figure 7 Effect of PA, IVA, and 4-HA on granule secretion. Aliquots of washed platelets pre-treated with or without the compounds for 5 min were stimulated with 0.25 U/mL thrombin at 37 °C for 5 min. After stimulation, the platelets were centrifuged, and the supernatants were collected. Using these supernatants, ATP (A) or serotonin (B) release was determined according to the manufacturer’s instructions. Each value is the mean ± SD of triplicate measurements. # p < 0.01, compared to each control groups. * p < 0.05 and ** p < 0.01, compared to only thrombin-treated control groups. Thrombin, thrombin treated only; PA10-100, 10–100 μg of PA treated; IVA10-100, 10–100 μg of IVA treated; 4-HA10-100, 10–100 μg of 4-HA treated.
Aliquots of washed platelets (250 × 10^6/mL) pre-treated with the compounds for 5 min were activated with 0.25 U/mL of thrombin in the presence of 1 mM of Ca^2+ for 5 min at 37 °C, according to a previously described method, with slight modifications. After stimulation, the reaction solution was centrifuged at 4 °C and 12,000× g for 5 min, and the supernatant was collected for subsequent use. Serotonin release was determined using a serotonin enzyme-linked immunosorbent assay kit (Labor Diagnostika Nord GmbH & Co., Nordhorn, Germany), according to the manufacturer’s instructions.

[4] = system: platelet aggregation/activation in whole blood; test: PFA-100 platelet function assay, collagen/epinephrine cartridge; format: cell-based; conditions: for Closure time: control 118.6 ± 2.1 s
Description: The effects of the compounds on platelet aggregation/activation and adherence in whole blood under conditions of high shear stress flow were evaluated using a collagen/epinephrine cartridge (Dade Behring, Marburg, Germany) and platelet function analyzer (PFA-100), as previously described. Blood samples were drawn from healthy donors using 3.8% (w/v) sodium citrate. Aliquots of whole blood were treated with different concentrations of compounds and incubated for 5 min at room temperature. Blood samples were added to a collagen/epinephrine cartridge, and the time required for occlusion of the aperture was measured using the analyzer and reported as the closure time. Saline-treated blood was used as a control.

Row | effect on platelet number (platelets; 10–50 μg/mL) | effect on leukocyte number (leukocytes; 10–50 μg/mL) | SMILES | Absorbance after Reaction ([1]; 1 μg) | Half Time at 1/2 Maximum ([1]; 1 μg) [s] | Fold of Half Time ([1]; 1 μg) | Absorbance after Reaction ([1]; 2 μg) | Absorbance after Reaction ([1]; 5 μg) | Absorbance after Reaction ([1]; 10 μg) | Absorbance after Reaction ([1]; 20 μg) | plasma coagulation time [1] | APTT, fold of control (human plasma) [fold] | activated partial thromboplastin time (APTT) (human plasma) [s] | fibrin polymer/clot formation (turbidity at 405 nm) [2] | Closure time ([4]; 10 μg) [s] | Closure time ([4]; 20 μg) [s] | Closure time ([4]; 50 μg) | Closure time, fold of control ([4]; 100 μg) [fold] | Closure time ([4]; 100 μg) | half-life and plasma coagulation time [1] | thrombin-stimulated serotonin secretion ([3]; 100 μg) | further results
1 | did not cause any effect | did not cause any effect | COc1ccc(C(=O)O)cc1O [IVA, isovanillic acid] | 0.1882 ± 0.0097 | 510 ± 25 | 0.69 ± 0.03 | 0.1732 ± 0.0106 | 0.1575 ± 0.0052 | 0.1377 ± 0.0071 | 0.0462 ± 0.0035 | partially prolonged | 1.70 | 67.0 ± 4.0 | dose-dependently inhibited | 118.5 ± 1.8 | 119.7 ± 2.8 | 123.5 ± 2.2 s | 1.09 | 129.4 ± 3.4 s | – | – | Half Time at 1/2 Maximum ([1]; 5 μg): 615 ± 20 s; Fold of Half Time ([1]; 5 μg): 0.83 ± 0.03; Half Time at 1/2 Maximum ([1]; 10 μg): 355 ± 30 s; Fold of Half Time ([1]; 10 μg): 0.48 ± 0.04; final plasma density ([1]; after 1800 s): significantly decreased; initial response of plasma coagulation (fold of half time) ([1]; range over doses, promoted (shorter half time)): 0.48–0.83 fold; APTT, dependence on concentration (human plasma): increased APTT in a concentration-dependent manner; thrombin-stimulated serotonin secretion ([3]; 50–100 μg): inhibited significantly
2 | did not cause any effect | did not cause any effect | O=C(O)c1ccc(O)cc1 [4-HA, 4-hydroxybenzoic acid] | 0.1424 ± 0.0122 | – | – | 0.1086 ± 0.0083 | 0.0866 ± 0.0051 | 0.0233 ± 0.0014 | 0.0205 ± 0.0029 | partially prolonged | 1.53 | 60.3 ± 5.6 | dose-dependently inhibited | 121.2 ± 1.9 | 127.7 ± 3.1 | 134.6 s and 134.6 ± 4.5 s | 1.24 | 147.3 s and 147.3 ± 5.8 s | significant delay | inhibited significantly | Half Time at 1/2 Maximum ([1]; 2 μg): 950 ± 70 s; Fold of Half Time ([1]; 2 μg): 1.28 ± 0.09; Closure time, fold of control ([4]; 50 μg): 1.13 fold
3 | – | – | O=C(O)c1ccc(O)c(O)c1 [PA, protocatechuic acid] | 0.1898 ± 0.0227 | 1220 ± 90 | 1.65 ± 0.12 | 0.0201 ± 0.0012 | 0.0044 ± 0.0009 | −0.0047 ± 0.0004 | −0.0103 ± 0.0011 | – | 1.33 | 52.5 ± 4.4 | dose-dependently inhibited | 119.9 ± 2.4 | 122.1 ± 1.4 | 126.3 ± 2.9 s | 1.13 | 133.7 ± 5.2 s | significant delay | inhibited significantly | effect on platelet number (platelets; 10–100 μg/mL): did not cause any effect; plasma coagulation for 1800 s ([1]; 5–20 μg): completely delayed; effect on leukocyte number (leukocytes; 10–100 μg/mL): did not cause any effect
